# Data published in patent publication US8084479B2, “Thiazole compounds and methods of use” (Amgen Inc., priority 2006, dated 2011).
# pIC50: −log10 of the molar value. Counter-ions that a name gives are not always drawn.
# Target: PKBα (Homo sapiens, UniProt P31749)
# Assay: PKB kinase assay (P33-labeled ATP, peptide substrate, filter plate)
# Assay type: biochemical
# Settings: PKBα enzyme (full length or kinase domain with pleckstrin domain deleted)
# Source text: The kinase assay for evaluating PKB activity comprises active PKB enzymes, a PKB specific substrate, and P^33-labeled ATP. […] The phosphorylated substrate was captured by a phosphocellulose membrane filter plate (MLLIPORE) and measured by a Wallac Microbeta liquid scintillation counter (Perkin Elmer).
# Sequence of PKBα (P31749 118-480 limits assumed): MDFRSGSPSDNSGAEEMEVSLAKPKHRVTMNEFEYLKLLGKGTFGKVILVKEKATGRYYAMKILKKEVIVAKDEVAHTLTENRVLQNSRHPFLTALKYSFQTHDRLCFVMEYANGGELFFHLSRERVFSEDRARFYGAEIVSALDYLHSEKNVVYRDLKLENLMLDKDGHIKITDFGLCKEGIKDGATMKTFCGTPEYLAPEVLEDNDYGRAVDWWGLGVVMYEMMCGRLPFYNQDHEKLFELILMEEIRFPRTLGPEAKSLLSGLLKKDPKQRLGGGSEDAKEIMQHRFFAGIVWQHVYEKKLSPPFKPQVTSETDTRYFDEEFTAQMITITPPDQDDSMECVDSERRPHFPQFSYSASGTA
row,pIC50,SMILES
1,6.00 to 7.30,"CC(C)(C)C(=O)OC[C@@H](c1ccc(C(F)(F)F)cc1)[C@H](N)CNc1ncc(-c2ccc3c(c2)CC(=O)N3)s1 [Example 242, (2S,3S)-3-amino-4-(5-(2-oxoindolin-5-yl)thiazol-2-ylamino)-2-(4-(trifluoromethyl)phenyl)butyl pivalate]"
2,5.00 to 6.00,"N[C@H](CNc1ncc(-c2ccc3cn[nH]c(=O)c3c2)s1)Cc1ccc(C(F)(F)F)cc1 [Example 252, 7-(2-((S)-2-amino-3-(4-(trifluoromethyl)phenyl)propylamino)thiazol-5-yl)phthalazin-1 (211)-one]"
3,6.00 to 7.30,"N[C@H](CNc1ncc(-c2ccc3[nH]c(=O)oc3c2)s1)Cc1cccc(C(F)(F)F)c1 [Example 46, 6-(2-((S)-2-amino-3-(3-(trifluoromethyl)phenyl)propylamino)thiazol-5-yl)benzo[d]oxazol-2(3H)-one]"
4,> 7.30,"N[C@H](CNc1ncc(-c2ccc3c(c2)CC(=O)N3)s1)Cc1ccc(C(F)(F)F)c(F)c1 [Example 185, 5-(2-((S)-2-amino-3-(3-fluoro-4-(trifluoromethyl)phenyl)propylamino)thiazol-5-yl)indolin-2-one]"
5,> 7.30,"N[C@H](CNc1ncc(-c2ccc3[nH]c(=O)oc3c2)s1)Cc1ccc2ccccc2c1 [Example 204, 6-(2-((S)-2-amino-3-(naphthalen-2-yl)propylamino)thiazol-5-yl)benzo[d]oxazol-2(3H)-one]"
6,5.00 to 6.00,"N[C@H](CNc1nc(C(F)(F)CO)c(-c2ccc3c(c2)CC(=O)N3)s1)Cc1ccc(C(F)(F)F)cc1 [Example 133, 5-(2-((S)-2-Amino-3-(4-(trifluoromethyl)phenyl)propylamino)-4-(1,1-difluoro-2-hydroxyethyl)thiazol-5-yl)indolin-2-one]"
7,> 7.30,"NC(CNc1ncc(-c2ccc3c(c2)CC(=O)N3)s1)Cc1ccc(OC(F)(F)F)cc1 (centres unmarked) [Example 188, 5-(2-(-2-amino-3-(4-(trifluoromethoxy)phenyl)propylamino)thiazol-5-yl)indolin-2-one]"
8,> 7.30,"COCc1nc(NC[C@@H](N)Cc2ccc(C(F)(F)F)cc2)sc1-c1ccc2[nH]c(=O)oc2c1 [Example 59, 6-(2-((S)-2-amino-3-(4-(trifluoromethyl)phenyl)propylamino)-4-(methoxymethyl)thiazol-5-yl)benzo[d]oxazol-2(3H)-one]"
9,5.00 to 6.00,"N[C@H](CNc1nc(C(=O)N2CCCC2)c(-c2ccc3cnccc3c2)s1)Cc1ccc(C(F)(F)F)cc1 [Example 195, (2-((S)-2-amino-3-(4-(trifluoromethyl)phenyl)propylamino)-5-(isoquinolin-6-yl)thiazol-4-yl)(pyrrolidin-1-yl)methanone]"
10,6.00 to 7.30,"N[C@H](CNc1nc(-c2cnco2)c(-c2ccc3cnccc3c2)s1)Cc1ccc(C(F)(F)F)cc1 [Example 118, N—((S)-2-Amino-3-(4-(trifluoromethyl)phenyl)propyl)-5-(isoquinolin-6-yl)-4-(oxazol-5-yl)thiazol-2-amine]"
11,5.00 to 6.00,"N[C@H](CNc1ncc(-c2ccc3c(c2)CC(=O)N3)s1)Cc1cc(F)cc(F)c1 [Example 163, 5-(2-((S)-2-amino-3-(3,5-difluorophenyl)propylamino)thiazol-5-yl)indolin-2-one]"
12,5.00 to 6.00,"CC1C(=O)Nc2ccc(-c3cnc(NC[C@@H](N)Cc4ccccc4)s3)cc21 (stereo partly drawn) [Example 70, 5-(2-((S)-2-amino-3-phenylpropylamino)thiazol-5-yl)-3-methylindolin-2-one]"
13,> 7.30,"N[C@H](CNc1ncc(-c2nc3ccncc3s2)s1)Cc1ccc(C(F)(F)F)cc1 [Example 32, N—((S)-2-amino-3-(4-(trifluoromethyl)phenyl)propyl)-5-(thiazolo[5,4-c]pyridin-2-yl)thiazol-2-amine]"
14,6.00 to 7.30,"N[C@H](CNc1ncc(-c2ccc3nnccc3c2)s1)Cc1ccc(C(F)(F)F)cc1 [Example 254, N—((S)-2-amino-3-(4-(trifluoromethyl)phenyl)propyl)-5-(cinnolin-6-yl)thiazol-2-amine]"
15,5.00 to 6.00,"Cn1c(=O)[nH]c2ccc(-c3sc(NC[C@@H](N)Cc4ccc(C(F)(F)F)cc4)nc3C#N)cc21 [Example 62, 2-((S)-2-amino-3-(4-(trifluoromethyl)phenyl)propylamino)-5-(3-methyl-2-oxo-2,3-dihydro-1H-benzo[d]imidazol-5-yl)thiazole-4-carbonitrile]"
16,6.00 to 7.30,"N[C@H](CNc1ncc(-c2ccc3c(c2)C(F)(F)C(=O)N3)s1)Cc1ccc(C(F)(F)F)cc1 [Example 41, 5-(2-((S)-2-amino-3-(4-(trifluoromethyl)phenyl)propylamino)thiazol-5-yl)-3,3-difluoroindolin-2-one]"
17,> 7.30,"N[C@H](CNc1nc(C#CCO)c(-c2ccc3cnccc3c2)s1)Cc1ccc(C(F)(F)F)cc1 [Example 140, 3-(2-((S)-2-amino-3-(4-(trifluoromethyl)phenyl)propylamino)-5-(isoquinolin-6-yl)thiazol-4-yl)prop-2-yn-1-ol]"
18,6.00 to 7.30,"COCC#Cc1nc(NC[C@@H](N)Cc2ccc(C(F)(F)F)cc2)sc1-c1ccc2cnccc2c1 [Example 146, N—((S)-2-amino-3-(4-(trifluoromethyl)phenyl)propyl)-5-(isoquinolin-6-yl)-4-(3-methoxyprop-1-ynyl)thiazol-2-amine]"

row,pIC50,SMILES
1,5.00 to 6.00,"N[C@H](CNc1ncc(-c2ccc3c(c2)OCO3)s1)Cc1c[nH]c2ccccc12 [Example 251, N—((S)-2-amino-3-(1H-indol-3-yl)propyl)-5-(benzo[d][1,3]dioxol-5-yl)thiazol-2-amine]"
2,> 7.30,"COCc1nc(NC[C@@H](N)Cc2ccc(Cl)c(Cl)c2)sc1-c1nc2ccncc2s1 [Example 96, N—((S)-2-Amino-3-(3,4-dichlorophenyl)propyl)-4-(methoxymethyl)-5-(thiazolo[5,4-c]pyridin-2-yl)thiazol-2-amine]"
3,> 7.30,"COCc1nc(NC[C@@H](N)Cc2ccc(C(F)(F)F)cc2)sc1-c1ccc2cnccc2c1 [Example 13, N—((S)-2-amino-3-(4-(trifluoromethyl)phenyl)propyl)-5-(isoquinolin-6-yl)-4-(methoxymethyl)thiazol-2-amine]"
4,> 7.30,"COCc1nc(NC[C@@H](N)Cc2ccc(C(F)(F)F)cc2)sc1-c1ccc2[nH]ncc2c1 [Example 14, N—((S)-2-amino-3-(4-(trifluoromethyl)phenyl)propyl)-5-(1H-indazol-5-yl)-4-(methoxymethyl)thiazol-2-amine]"
5,> 7.30,"N[C@H](CNc1ncc(-c2cc3oc(=O)[nH]c3cc2F)s1)Cc1ccc(C(F)(F)F)cc1 [Example 112, 6-(2-((S)-2-Amino-3-(4-(trifluoromethyl)phenyl)propylamino)thiazol-5-yl)-5-fluorobenzo[d]oxazol-2(3H)-one]"
6,5.00 to 6.00,"N#Cc1nc(NC[C@@H](N)Cc2ccc(C(F)(F)F)cc2)sc1-c1ccc2c(c1)CC(=O)N2 [Example 61, 2-((S)-2-amino-3-(4-(trifluoromethyl)phenyl)propylamino)-5-(2-oxoindolin-5-yl)thiazole-4-carbonitrile]"
7,6.00 to 7.30,"NC(CNc1ncc(-c2ccc3[nH]c(=O)oc3c2)s1)Cc1ccc(O)c(F)c1 (centres unmarked) [Example 216, 6-(2-(2-Amino-3-(3-fluoro-4-hydroxyphenyl)propylamino)thiazol-5-yl)benzo[d]oxazol-2(3H)-one]"
8,5.00 to 6.00,"N[C@H](CNc1ncc(-c2ccc3c(c2)CC(=O)N3)s1)Cc1ccc(OCCCCl)cc1 [Example 94, 5-(2-((S)-2-Amino-3-(4-(3-chloropropoxy)phenyl)propylamino)thiazol-5-yl)indolin-2-one]"
9,> 7.30,"N[C@H](CNc1nc(CO)c(-c2ccc3c(c2)CC(=O)N3)s1)Cc1ccc(C(F)(F)F)cc1 [Example 123, 5-(2-((S)-2-Amino-3-(4-(trifluoromethyl)phenyl)propylamino)-4-(hydroxymethyl)thiazol-5-yl)indolin-2-one]"
10,6.00 to 7.30,"N[C@@H](Cc1ccc(C(F)(F)F)cc1)CN(Cc1ccccc1)c1ncc(-c2nc3ccncc3s2)s1 [Example 30, N—((S)-2-amino-3-(4-(trifluoromethyl)phenyl)propyl)-N-benzyl-5-(thiazolo[5,4-c]pyridin-2-yl)thiazol-2-amine]"
11,6.00 to 7.30,"CCc1nc(NC[C@@H](N)Cc2ccc(C(F)(F)F)cc2)sc1-c1nc2ccncc2s1 [Example 23, N—((S)-2-amino-3-(4-(trifluoromethyl)phenyl)propyl)-4-ethyl-5-(thiazolo[5,4-c]pyridin-2-yl)thiazol-2-amine]"
12,6.00 to 7.30,"COc1ccc(CC(N)CNc2ncc(-c3ccc4[nH]c(=O)oc4c3)s2)cc1F (centres unmarked) [Example 129, 6-(2-(2-Amino-3-(3-fluoro-4-methoxyphenyl)propylamino)-thiazol-5-yl)benzo[d]oxazol-2(3H)-one]"
13,> 7.30,"C[C@@H](c1ccc(C(F)(F)F)cc1)[C@H](N)CNc1ncc(-c2ccc3c(c2F)CC(=O)N3)s1 [Example 225, 5-(2-((2S,3S)-2-amino-3-(4-(trifluoromethyl)phenyl)butylamino)thiazol-5-yl)-4-fluoroindolin-2-one]"
14,6.00 to 7.30,"N[C@H](CNc1nc(C#CC2(O)CCC2)c(-c2ccc3cnccc3c2)s1)Cc1ccc(C(F)(F)F)cc1 [Example 142, 1-(2-(2-((S)-2-amino-3-(4-(trifluoromethyl)phenyl)propylamino)-5-(isoquinolin-6-yl)thiazol-4-yl)ethynyl)cyclobutanol]"
15,6.00 to 7.30,"N#Cc1ccc(-c2cnc(NC[C@@H](N)Cc3ccc(C(F)(F)F)cc3)s2)cc1F [Example 166, 4-(2-((S)-2-amino-3-(4-(trifluoromethyl)phenyl)propylamino)thiazol-5-yl)-2-fluorobenzonitrile]"
16,> 7.30,"N[C@H](CNc1ncc(-c2ccc3c(c2)CC(=O)N3)s1)Cc1ccc(C(F)(F)F)nc1 [Example 171, 5-(2-((S)-2-amino-3-(6-(trifluoromethyl)pyridine-3-yl)propylamino)thiazol-5-yl)indolin-2-one]"
17,> 7.30,"C[C@@H](c1ccc(C(F)(F)F)cc1)[C@H](N)CNc1ncc(-c2ccc3c(c2)CC(=O)N3)s1 [Example 92, 5-(2-((2S,3S)-2-Amino-3-(4-(trifluoromethyl)phenyl)butylamino)thiazol-5-yl)indolin-2-one methane sulfonic acid salt]"
